These results are taken from ChEMBL document CHEMBL1137974, “1- and 2-substituted naphthalenes: a new class of potential hypotensive agents” (2004).

Experiment [1] relates to Felis catus. In words: Hypotensive activity in cat following i.v. administration of 5 mg/kg expressed as fall in blood pressure. Type of experiment: functional. The note with it: route intravenous.
The test system of experiment [2] is Felis catus. The experiment in a line: Duration of hypotensive activity in cat following i.v. administration of 1 mg/kg. The class given is functional. Conditions: route intravenous.
The test system of experiment [3] is Felis catus. The experiment in a line: Hypotensive activity in cat following i.v. administration of 1 mg/kg expressed as fall in blood pressure. Type of experiment: functional. Conditions: route intravenous.
Experiment [4] has as its system Felis catus. In words: Duration of hypotensive activity in cat following i.v. administration of 5 mg/kg. The note with it: route intravenous. The class given is functional.
Experiment [5] concerns Felis catus. In words: Hypotensive activity in cat following i.v. administration of 1 mg/kg expressed as fall in blood pressure; NA denotes not active. The note with it: for Max effect: at 1 mg/kg. Type of experiment: functional, organism-based. More on the design: dose 1 mg/kg.
In experiment [6] the test system is Felis catus. In words: Hypotensive activity in cat following i.v. administration of 5 mg/kg expressed as fall in blood pressure; D denotes death. Details: dose 5 mg/kg. The class given is functional, organism-based.
Experiment [7] relates to Felis catus. The experiment in a line: Hypotensive activity in cat following i.v. administration of 5 mg/kg expressed as fall in blood pressure; NA denotes not active. Type of experiment: functional, organism-based. More on the design: dose 5 mg/kg. The note with it: at 5 mg/kg.

Activity calls are given as the source filed them. The rule behind the calls is not given here. A value given as a limit tells only on which side of the number the result lay.

On to `O=C(O)C(CCOc1cccc2ccccc12)CN1CCN(c2ccccc2)CC1` (stereo not given), for which the results for the “Decrease in blood pressure” value with Felis catus [1] and in the experiment on Felis catus [3] were 50 mmHg and 20 mmHg, respectively. The Max effect in the experiment with Felis catus [1] is 40%; with Felis catus [3], 14%. Besides, the Duration with Felis catus [2] amounted to 2 min; with Felis catus [4], 7 min.

Consider `O=C(O)C(CCOc1cccc2ccccc12)CN1CCCCC1` (stereo not given), for which the figures for the “Decrease in blood pressure” value with Felis catus [1] and in the experiment on Felis catus [3] were 40 mmHg and 30 mmHg, respectively. For the same molecule, the Max effect in the experiment with Felis catus [1] was found to be 47%; in the experiment with Felis catus [3], 19%. Besides, the Duration with Felis catus [2] was determined as 16 min; with Felis catus [4], 50 min.

In the case of `O=C(O)C(CCOc1cccc2ccccc12)CN1CCNCC1` (stereo not given), the “Decrease in blood pressure” value in the experiment on Felis catus [1] was found to be 25 mmHg; in the experiment with Felis catus [3], 12 mmHg. For the same molecule, the Max effect was determined as 19% in the experiment with Felis catus [1] and 7% in the experiment with Felis catus [3]. Besides, the figures for the Duration with Felis catus [2] and with Felis catus [4] were 12 min and 7 min, respectively.

As to `O=C(O)C(CCOc1cccc2ccccc12)CN1CCOCC1` (stereo not given), the “Decrease in blood pressure” value in the experiment on Felis catus [1] was determined as 16 mmHg; in the experiment with Felis catus [3], 18 mmHg. In addition, the Max effect in the experiment with Felis catus [1] and in the experiment on Felis catus [3] was 17% each time. Moreover, the Duration in the experiment with Felis catus [2] and with Felis catus [4] was 2 min each time.

Regarding `c1ccc(N2CCN(COc3ccc4ccccc4c3)CC2)cc1`, the “Decrease in blood pressure” value in the experiment on Felis catus [1] was determined as 60 mmHg; in the experiment on Felis catus [3] it was 40 mmHg. Also, the Max effect in the experiment with Felis catus [1] came out at 75%; with Felis catus [3] it was 50%. Further, the results for the Duration in the experiment with Felis catus [2] and in the experiment with Felis catus [4] were 16 min and 120 min, respectively.

For the molecule `c1ccc2cc(OCN3CCOCC3)ccc2c1`, in the experiment on Felis catus [1], the “Decrease in blood pressure” value amounted to 50 mmHg and the Max effect came out at 41%. For the same molecule, in the experiment with Felis catus [4], the Duration was above 35 min. Also, in the experiment with Felis catus [5], the “Decrease in blood pressure” value is “inactive” and the Max effect entry is “inactive”.

In the case of `c1ccc2cc(OCN3CCNCC3)ccc2c1`, in the experiment with Felis catus [1], the “Decrease in blood pressure” value is 10 mmHg and the Max effect was 7%. In addition, in the experiment on Felis catus [4], the Duration worked out at 2 min. In the experiment on Felis catus [5], the “Decrease in blood pressure” value was “inactive” and the Max effect entry was “inactive”.

`c1ccc2cc(OCN3CCCC3)ccc2c1`: the “Decrease in blood pressure” value in the experiment with Felis catus [1] is 30 mmHg; with Felis catus [3] it was 12 mmHg. Besides, the results for the Max effect with Felis catus [1] and in the experiment with Felis catus [3] were 19% and 7%, respectively. Also, the Duration in the experiment with Felis catus [2] amounted to 10 min; in the experiment with Felis catus [4], 16 min.

On to `c1ccc2cc(OCN3CCCCC3)ccc2c1`, for which the “Decrease in blood pressure” value with Felis catus [1] is listed as 44 mmHg; with Felis catus [3] it was 20 mmHg. Also, the Max effect in the experiment with Felis catus [1] came to 52%; with Felis catus [3], 21%. Further, the Duration in the experiment on Felis catus [2] is 2 min; with Felis catus [4], 17 min.

Consider `CN1CCN(CC(CCOc2cccc3ccccc23)C(=O)O)CC1` (stereo not given), for which the results for the “Decrease in blood pressure” value in the experiment on Felis catus [1] and in the experiment with Felis catus [3] were 34 mmHg and 18 mmHg, respectively. In addition, the Max effect is given as 38% in the experiment on Felis catus [1] and 17% in the experiment on Felis catus [3]. The Duration in the experiment with Felis catus [2] was determined as 2 min; in the experiment with Felis catus [4] it was 4 min.

`CC(C)NCC(O)COc1cccc2ccccc12` (stereo not given) [PROPRANOLOL]: the “Decrease in blood pressure” value came out at 50 mmHg with Felis catus [1] and 46 mmHg with Felis catus [3]. For the same molecule, the Max effect in the experiment on Felis catus [1] was determined as 41%; with Felis catus [3], 35%. In addition, the results for the Duration with Felis catus [2] and in the experiment on Felis catus [4] were 40 min and above 60 min, respectively.

Take `O=C(O)C(CCOc1cccc2ccccc12)CN1CCCC1` (stereo not given): the “Decrease in blood pressure” value with Felis catus [1] was found to be 20 mmHg; in the experiment with Felis catus [3] it was 10 mmHg. For the same molecule, the Max effect in the experiment on Felis catus [1] came to 17%; in the experiment with Felis catus [3], 8%. In addition, the figures for the Duration with Felis catus [2] and in the experiment on Felis catus [4] were 2 min and 30 min, respectively.

Molecule `CN1CCN(COc2ccc3ccccc3c2)CC1` showed a Duration in the experiment with Felis catus [2] of 2 min. In addition, the “Decrease in blood pressure” value in the experiment with Felis catus [6] is given as “Death”. In addition, the Max effect entry in the experiment on Felis catus [7] was “inactive”. For the same molecule, in the experiment with Felis catus [3], the “Decrease in blood pressure” value was 18 mmHg and the Max effect is reported as 21%.
